Results reported in patent US8987249B2, “Substituted 2-Aza-bicyclo[2.2.1]heptane-3-carboxylic acid (benzyl-cyano-methyl)-amides inhibitors of Cathepsin C” (Boehringer Ingelheim International GmbH, priority 2013, dated 2015).

Assays:
[1] = biological target: recombinant human DPPI (Cathepsin C) (Homo sapiens (Human), UniProt P53634); test: Inhibition of human DPPI (Cathepsin C); format: biochemical; conditions: substrate Gly-Arg-AMC
Summary of the method: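 Fluorescence read after 30 min room-temperature turnover of 50 μM (final) substrate by recombinant human cathepsin C, pH 6.0 MES/NaCl/DTT/BSA buffer, quenched by Gly-Phe-DMK (1 μM final). Activity as percent of vehicle after background subtraction, used for IC50.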

in vitro = conditions: human, microsomes, pH 7.6
Protocol: Determination of Metabolic Stability with Human Liver Microsomes
The metabolic degradation of the test compound is assayed at 37° C. with pooled human liver microsomes. The final incubation volume of 100 μl per time point contains TRIS buffer pH 7.6 (0.1 M), magnesium chloride (5 mM), microsomal protein (1 mg/ml) and the test compound at a final concentration of 1 μM. Following a short preincubation period at 37° C., the reactions are initiated by addition of beta-nicotinamide adenine dinucleotide phosphate, reduced form (NADPH, 1 mM) and terminated by transferring an aliquot into acetonitrile after different time points. Additionally, the NADPH-independent degradation is monitored in incubations without NADPH, terminated at the last time point. The [%] remaining test compound after NADPH independent incubation is reflected by the parameter c (control) (metabolic stability). The quenched incubations are pelleted by centrifugation (10,000 g, 5 min). An aliquot of the supernatant is assayed by LC-MS/MS for the amount of parent compound.
The half-life (t½ INVITRO) is determined by the slope of the semilogarithmic plot of the concentration-time profile.

[2] = biological target: recombinant human Cathepsin K (Homo sapiens (Human), UniProt P43235); test: Inhibition of human Cathepsin K; format: biochemical; conditions: substrate Z-Gly-Pro-Arg-AMC
Summary of the method: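 Fluorogenic Z-Gly-Pro-Arg-AMC cleavage, 60 min at room temperature, after a 10 min enzyme–compound preincubation (enzyme 2 ng/μL; compound 0.1 nM–100 μM; 1% DMSO). Buffer pH 5.5 with sodium acetate, EDTA and L-cysteine; procathepsin first activated 30 min at pH 3.5. E64 (1 μM) stop; IC50 derived from percent of vehicle signal minus background (Ex 360/Em 460 nm).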

Chain of recombinant human Cathepsin K (P43235 115-329): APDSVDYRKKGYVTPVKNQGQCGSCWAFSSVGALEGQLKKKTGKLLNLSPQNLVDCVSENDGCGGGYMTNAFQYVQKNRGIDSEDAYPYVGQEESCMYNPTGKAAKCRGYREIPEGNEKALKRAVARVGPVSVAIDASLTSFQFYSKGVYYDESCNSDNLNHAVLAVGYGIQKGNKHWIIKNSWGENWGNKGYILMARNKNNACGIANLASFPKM
Chain of recombinant human DPPI (Cathepsin C) (P53634 231-394): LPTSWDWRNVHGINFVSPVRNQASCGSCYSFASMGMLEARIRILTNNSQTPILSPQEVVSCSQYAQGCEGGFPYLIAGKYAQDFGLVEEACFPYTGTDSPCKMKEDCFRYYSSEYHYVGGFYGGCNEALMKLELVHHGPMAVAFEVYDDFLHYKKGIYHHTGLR
Chain of recombinant human DPPI (Cathepsin C) (P53634 395-463): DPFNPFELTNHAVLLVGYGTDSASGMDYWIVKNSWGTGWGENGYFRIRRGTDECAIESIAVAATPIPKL
Chain of recombinant human DPPI (Cathepsin C) (P53634 25-134): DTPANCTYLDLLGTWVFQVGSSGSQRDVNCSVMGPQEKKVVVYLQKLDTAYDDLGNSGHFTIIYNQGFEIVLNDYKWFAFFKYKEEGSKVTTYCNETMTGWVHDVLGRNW

| Structure (SMILES) | IC50 [1] | half-life at 1 μM (in vitro) | IC50 [2] |
| --- | --- | --- | --- |
| N#C[C@H](Cc1ccc(N2CCNCC2)cc1F)NC(=O)[C@H]1N[C@@H]2CC[C@H]1C2 [Example 204] | 0.0245 µM | > 2.17 h |  |
| CN1CC=C(c2ccc(C[C@@H](C#N)NC(=O)[C@H]3N[C@@H]4CC[C@H]3C4)c(F)c2)CC1 [Example 223] |  | > 2.17 h |  |
| CN(C)CCN1C(=O)Cc2ccc(-c3ccc(C[C@@H](C#N)NC(=O)[C@H]4N[C@@H]5CC[C@H]4C5)c(F)c3)cc21 [Example 278] | 0.001 µM | > 2.17 h | 1.2 µM |
| N#C[C@H](Cc1ccc(C2=CC3COCCN3CC2)cc1F)NC(=O)[C@H]1N[C@@H]2CC[C@H]1C2 (stereo partly drawn) [Example 282] | 0.0037 µM | > 2.17 h | 1.8 µM |
| CCN1CC=C(c2ccc(C[C@@H](C#N)NC(=O)[C@H]3N[C@@H]4CC[C@H]3C4)c(F)c2)CC1 [Example 320] | 0.0096 µM | > 2.17 h |  |
| CN1CCC(C)(c2ccc(C[C@@H](C#N)NC(=O)[C@H]3N[C@@H]4CC[C@H]3C4)c(F)c2)CC1 [Example 321] |  | > 2.17 h |  |
| CN1CC2CCC(C1)N2c1ccc(C[C@@H](C#N)NC(=O)[C@H]2N[C@@H]3CC[C@H]2C3)c(F)c1 [Example 328] | 0.0042 µM | > 2.17 h | 7.7 µM |
| N#C[C@H](Cc1ccc(C2=CCN(C3CCOC3)CC2)cc1F)NC(=O)[C@H]1N[C@@H]2CC[C@H]1C2 (stereo partly drawn) [Example 332] | 0.0129 µM | 1.67 h | 6.2 µM |
| CN1C2CCC1CN(c1ccc(C[C@@H](C#N)NC(=O)[C@H]3N[C@@H]4CC[C@H]3C4)c(F)c1)C2 [Example 333] | 0.0153 µM | > 2.17 h | 2.4 µM |
